The target in test [1] is T1, human NCX1 (Homo sapiens, UniProt P32418).
T1 construct: expressed in transfected cells
Nature of the test: NCX1 inhibition, forward mode (Ca2+ efflux out of cells), FLIPR calcium assay. The following applies: for IC50: CHO cells stably expressing human NCX1, read-out: NCX1fw IC50; for inhibition at 10 µM: CHO cells stably expressing human NCX1, read-out: Inhibition in % at 10 μM, IC50 value not determined. Type of test: cell-based. From the text:
The sodium/calcium exchanger NCX1 can transport calcium ions and sodium ions through the cell membrane. The transport is an exchange of Ca^2+ and Na^+ in two directions depending on membrane potential and ion gradients. At the first direction, named “forward mode” or “calcium export mode”, Ca^2+ is transported out of the cell and Na^+ is transported into the cell. At the other direction, named “reverse mode” or “calcium import mode”, the transport directions are vice versa. The effect of the compounds of the invention on NCX1 was determined in CHO cells stably expressing human NCX1 (gene symbol SLC8A1; cf. WO 2009/115238). The assay is based on the monitoring of intracellular Ca^2+ concentrations using a calcium-sensitive fluorescence dye which is detected by means of a FLIPR device (Fluorimetric Imaging Plate Reader, Molecular Devices).
The assay is based on the monitoring of intracellular Ca^2+ concentrations using the PBX Calcium Assay Kit from BD (Becton, Dickinson and Company) with calcium indicator dye 51-9000177BKa (BD, 640177). CHO cells expressing NCX1 were loaded with the dye, and after a preincubation period with the test compound, Ionomycin (Calbiochem, 407950) was added. Ionomycin is an ionophor for Ca^2+ ions mediating an increase of intracellular Ca^2+ ions. Consequently, intracellular Ca^2+ ions are exchanged against extracellular Na^+ ions (Ca^2+ efflux, forward mode). The decrease of intracellular Ca^2+ ions was detected by measuring the fluorescence of the calcium indicator dye at a wavelength of 520 nm by a FLIPR device.
Briefly, similarly as for the reverse mode, for the forward mode transport assay 18000 cells per well were seeded into a 96 well microplate (Corning COSTAR 3904) and incubated overnight in culture medium (cf. above). A total volume of 100 μl medium per well was used. For the preparation of the FLIPR assay, the culture medium was removed from the plates and 100 μl of assay buffer (133.8 mM NaCl (Sigma, S5886); 4.7 mM KCl (Sigma, P3911); 1.25 mM MgCl2 (Merck, 1.05833.0250); 3.5 mM CaCl2(Merck, 1.02083.0250); 5 mM glucose (Sigma, G7021); 10 mM Hepes (Sigma, H4034); pH 7.4)) were added to each well in a washing step. Assay buffer was removed, and 100 μl of a solution of the test compound in assay buffer in different concentrations were added into the wells. Further, 100 μl of dye solution (0.09% (v/v) calcium indicator dye, 9.1% (v/v) signal enhancer (from PBX Calcium Assay Kit); in assay buffer) were added into each well. The plates were incubated in the dark at room temperature for 60 min. Meanwhile a 10 μM solution of Ionomycin in assay buffer (additionally containing 0.05% fetal calf serum (cf. above); 4° C.) was prepared and stored in the wells of a 96 well microplate (96 well microplate, polypropylene, U-shape (Greiner Bio-One, 650201)). The fluorescence monitoring was performed at 60 measuring points with measurement intervals of 2 sec. After the fifth measuring point, 50 μl of the Ionomycin solution were added to each well of the assay plate to give a final Ionomycin concentration of 2 μM. For the determination of the IC50 values the minimal fluorescence value was subtracted from the maximal fluorescence value for the fifteenth to fifty-fifth measuring points. The calculation of the IC50 values via the percentage inhibitions of Ca^2+ efflux out of cells (forward mode) effected by the test compound was performed in Biost@t Speed 2.0. “NCX1fw IC50” in Table 2 means the IC50 value for inhibition of NCX1 in forward mode (in μM (micromol/liter)).

Test [2] concerns the target T1, human NCX1. Nature of the test: NCX1 inhibition, reverse mode (Ca2+ influx into cells), FLIPR Fluo-4 assay. Type of test: cell-based. The following applies: inhibition of NCX1 in reverse mode (Ca2+ influx into cells); read-out: NCX1rv IC50. In a few lines: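 Max−min Fluo-4 fluorescence (520 nm, FLIPR, 240 points at 2 s) after 20 µM final gramicidin, which drives Na+ loading and reverse-mode Ca2+ entry, gave % inhibition and IC50. Test compound was preincubated 45 min at 16 °C with Fluo-4-loaded CHO cells stably expressing human NCX1, in pH 7.4 buffer containing 3.5 mM CaCl2 and probenecid.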

Where a name gives a salt, the structure may show the parent alone.

This is an account of results in patent publication US20140243292A1, “SUBSITUTED 2-(CHROMAN-6-YLOXYL)-THIAZOLES AND THEIR USE AS PHARMACEUTICALS” (Sanofi, priority 2011, published 2014).

In general, IC50 refers to the concentration that inhibits the measured activity by half. As usually defined, the inhibition is the percentage by which the read-out fell short of the control.

Turning to `O=C(c1cnc(Oc2ccc3c(c2)CC[C@@H](c2ccccc2)O3)s1)N1CCOCC1` [Example 214], the half-inhibitory concentration (IC50) at human NCX1 [1] was 4500 nM; at human NCX1 [2] it was 500 nM. For `O=C(NCc1ccnc(Cl)c1)c1cnc(Oc2ccc3c(c2)CCC(c2ccccc2)O3)s1` (centres unmarked) [Example 39, 2-(2-Phenyl-chroman-6-yloxy)-thiazole-5-carboxylic acid (2-chloro-pyridin-4-ylmethyl)-amide], the concentration for half-maximal inhibition (IC50) on human NCX1 [1] is 1200 nM; on human NCX1 [2], 300 nM. Consider `Cc1ccccc1[C@H]1CCc2cc(Oc3ncc(C(=O)NCCO)s3)ccc2O1` [Example 325, 2-((R)-2-o-Tolyl-chroman-6-yloxy)-thiazole-5-carboxylic acid (2-hydroxy-ethyl)-amide], for which the inhibition at 10 µM at human NCX1 [1] was 26%. Further, the IC50 at human NCX1 [2] was found to be 200 nM. On to `c1ccc(C2CCc3cc(Oc4ncc(CNCc5ccncc5)s4)ccc3O2)cc1` (centres unmarked) [Example 134, [2-(2-Phenyl-chroman-6-yloxy)-thiazol-5-ylmethyl]-pyridin-4-ylmethyl-amine], for which the IC50 on human NCX1 [1] stood at 2600 nM; on human NCX1 [2] it was 200 nM.

`c1ccc(C2CCc3cc(Oc4ncc(CNCc5cn6ccsc6n5)s4)ccc3O2)cc1` (centres unmarked) [Example 158]: the inhibition at 10 µM on human NCX1 [1] is 46%. For the same compound, the half-inhibitory concentration (IC50) at human NCX1 [2] was determined as 300 nM. With `CC(NC(=O)c1cnc(Oc2ccc3c(c2)CCC(c2cccc(F)c2)O3)s1)c1ccncc1` (centres unmarked) [Example 13, hydrochloride], the IC50 worked out at 900 nM at human NCX1 [1] and 300 nM at human NCX1 [2].

`O=C(NCc1nnc2n1CCC2)c1cnc(Oc2ccc3c(c2)CCC(c2ccccc2)O3)s1` (centres unmarked) [Example 2, 2-(2-Phenyl-chroman-6-yloxy)-thiazole-5-carboxylic acid (6,7-dihydro-5H-pyrrolo[2,1-c][1,2,4]triazol-3-ylmethyl)-amide]: the 50% inhibitory concentration (IC50) was 1900 nM at human NCX1 [1] and 300 nM on human NCX1 [2].

Consider `O=C(O)C1CN(C(=O)c2cnc(Oc3ccc4c(c3)CC[C@@H](c3ccccc3)O4)s2)CC1C(F)(F)F` (some centres unmarked) [Example 243], for which the inhibition at 10 µM at human NCX1 [1] was determined as 19%. The IC50 at human NCX1 [2] amounted to 700 nM. As for `Cc1nn(C)c(C)c1S(=O)(=O)NCc1cnc(Oc2ccc3c(c2)CCC(c2ccccc2)O3)s1` (centres unmarked) [Example 125, 1,3,5-Trimethyl-1H-pyrazole-4-sulfonic acid [2-(2-phenyl-chroman-6-yloxy)-thiazol-5-ylmethyl]-amide], on human NCX1 [1], the inhibition at 10 µM was determined as 20%. Besides, the 50% inhibitory concentration (IC50) at human NCX1 [2] was found to be 9200 nM. For `Cc1ccc(F)cc1C1CCc2cc(Oc3ncc(C(=O)N(C)C)s3)ccc2O1` (centres unmarked) [Example 348], the values for the IC50 on human NCX1 [1] and at human NCX1 [2] were 800 nM and 640 nM, respectively.

With `c1ccc(C2CCc3cc(Oc4ncc(CNC5CC5)s4)ccc3O2)cc1` (centres unmarked) [Example 103], the 50% inhibitory concentration (IC50) was found to be 3100 nM at human NCX1 [1] and 200 nM at human NCX1 [2]. On to `Cc1c(CNC(=O)c2cnc(Oc3ccc4c(c3)CCC(c3ccccc3)O4)s2)cnn1C` (centres unmarked) [Example 14, 2-(2-Phenyl-chroman-6-yloxy)-thiazole-5-carboxylic acid (1,5-dimethyl-1H-pyrazol-4-ylmethyl)-amide], for which the figures for the IC50 on human NCX1 [1] and on human NCX1 [2] were 2200 nM and 300 nM, respectively.

For `Cc1nc(Oc2ccc3c(c2)CCC(c2ccccc2)O3)sc1C(=O)NCc1ccncc1` (centres unmarked) [Example 59, hydrochloride], the IC50 turned out to be 200 nM at human NCX1 [1] and 100 nM at human NCX1 [2]. In the case of `O=C(NCc1ccncc1)c1cnc(Oc2ccc3c(c2)CCC(c2cccc(F)c2)O3)s1` (centres unmarked) [Example 18, hydrochloride], the figures for the 50% inhibitory concentration (IC50) at human NCX1 [1] and on human NCX1 [2] were 600 nM and 200 nM, respectively. Take `COC(=O)C(C)(C)NC(=O)c1cnc(Oc2ccc3c(c2)CC[C@@H](c2ccccc2)O3)s1` [Example 182]: the inhibition at 10 µM on human NCX1 [1] is 8%. The IC50 at human NCX1 [2] was 600 nM. For the compound `O=C(NCc1ccno1)c1cnc(Oc2ccc3c(c2)CCC(c2cccnc2)O3)s1` (centres unmarked) [Example 58, hydrochloride], the IC50 on human NCX1 [1] came to 8300 nM; at human NCX1 [2] it was 600 nM. Regarding `COC(=O)[C@@H](C)NC(=O)c1cnc(Oc2ccc3c(c2)CCC(c2cccnc2)O3)s1` (some centres unmarked) [Example 275], the IC50 on human NCX1 [1] is 9900 nM; on human NCX1 [2] it was 3100 nM. As to `O=C(NC(CCO)C1CC1)c1cnc(Oc2ccc3c(c2)CC[C@@H](c2ccccc2)O3)s1` (some centres unmarked) [Example 206], the IC50 at human NCX1 [1] worked out at 1600 nM; at human NCX1 [2], 300 nM. As for `O=C(NCc1ccncn1)c1cnc(Oc2ccc3c(c2)CCC(c2ccccc2)O3)s1` (centres unmarked) [Example 32], the inhibition at 10 µM at human NCX1 [1] came to 27%. Besides, on human NCX1 [2], the IC50 was determined as 600 nM. Regarding `O=C(NCCN1CCNC1=O)c1csc(Oc2ccc3c(c2)CC[C@@H](c2ccccc2)O3)n1` [Example 352], at human NCX1 [1], the inhibition at 10 µM is 31%. Besides, the IC50 on human NCX1 [2] is 210 nM. For `CCCNC(=O)c1cnc(Oc2ccc3c(c2)CCC(c2ccccc2)O3)s1` (centres unmarked) [Example 321, 2-(2-Phenyl-chroman-6-yloxy)-thiazole-5-carboxylic acid propylamide], the results for the IC50 on human NCX1 [1] and on human NCX1 [2] were 1500 nM and 400 nM, respectively. For `Cc1ccccc1C1CCc2cc(Oc3nc(C)c(C(=O)NCCO)s3)ccc2O1` (centres unmarked) [Example 335], the half-inhibitory concentration (IC50) on human NCX1 [1] stood at 900 nM; at human NCX1 [2], 300 nM.

On to `CCOC(=O)[C@@H]1CCCC[C@@H]1NC(=O)c1cnc(Oc2ccc3c(c2)CC[C@@H](c2ccccc2)O3)s1` [Example 189], for which the inhibition at 10 µM at human NCX1 [1] was 17%. Further, the half-inhibitory concentration (IC50) at human NCX1 [2] worked out at 600 nM. Turning to `O=C(N[C@@H](Cc1ccccc1)C(=O)O)c1cnc(Oc2ccc3c(c2)CC[C@@H](c2ccccc2)O3)s1` [compound 244], the IC50 on human NCX1 [2] came out at 600 nM. The same measure, in the same setting: the result for `Cc1cnc(CNCc2cnc(Oc3ccc4c(c3)CCC(c3ccccc3)O4)s2)cn1` (centres unmarked) [compound 135] reads 500 nM. In the case of `CN[C@H]1CN(C(=O)c2cnc(Oc3ccc4c(c3)CC[C@@H](c3ccccc3)O4)s2)CC[C@H]1C` [compound 285, hydrochloride], the half-maximal inhibitory concentration (IC50) at human NCX1 [2] was determined as 900 nM.

As to `COC(=O)[C@@H](NC(=O)c1cnc(Oc2ccc3c(c2)CCC(c2cccnc2)O3)s1)C(C)(C)C` (some centres unmarked) [compound 264], the concentration for half-maximal inhibition (IC50) at human NCX1 [2] was 3100 nM. Turning to `Cc1cc(C)nc(CNCc2cnc(Oc3ccc4c(c3)CCC(c3ccccc3)O4)s2)n1` (centres unmarked) [compound 143], the IC50 at human NCX1 [2] was 500 nM. As to `CCCNC(=O)c1sc(Oc2ccc3c(c2)CCC(c2ccccc2C)O3)nc1C` (centres unmarked) [compound 332], the concentration for half-maximal inhibition (IC50) at human NCX1 [2] came out at 10000 nM. Turning to `C[C@H](N)C(=O)NCc1cnc(Oc2ccc3c(c2)CC[C@@H](c2ccccc2)O3)s1` [compound 303], the IC50 at human NCX1 [2] was found to be 300 nM.

With `O=C(Cc1ccncc1)NCc1cnc(Oc2ccc3c(c2)CCC(c2cccc(F)c2)O3)s1` (centres unmarked) [compound 46, hydrochloride], the IC50 at human NCX1 [2] was found to be 200 nM. On the same count and under the same terms, the result for `CC(C)[C@H](NC(=O)c1cnc(Oc2ccc3c(c2)CCC(c2cccnc2)O3)s1)C(=O)O` (some centres unmarked) [compound 272] reads 15600 nM. As to `CC1(C)C[C@@H](C(=O)O)N(C(=O)c2cnc(Oc3ccc4c(c3)CC[C@@H](c3ccccc3)O4)s2)C1` [compound 234], the half-inhibitory concentration (IC50) on human NCX1 [2] is 1000 nM. For the compound `OCCN(CCO)Cc1cnc(Oc2ccc3c(c2)CCC(c2ccccc2)O3)s1` (centres unmarked) [compound 319], the IC50 on human NCX1 [2] stood at 800 nM.

In the case of `Cc1ccccc1C1CCc2cc(Oc3ncc(C(=O)NCc4ccnc(Cl)c4)s3)ccc2O1` (centres unmarked) [compound 215], the IC50 on human NCX1 [2] was 1000 nM. The same measure, in the same setting: the result for `O=C(NCc1ccncc1)c1cnc(Oc2ccc3c(c2)CC[C@@H](c2ccccc2)O3)s1` [compound 36] reads 100 nM.
